Experimental data: patent US6251885A, “Cytotrienins, process for preparing the same and anti-tumor agent” (The Institute of Physical and Chemical Research, priority 1996, dated 2001)
Values after ≈ are worked out from the molar mass of the structure shown.

Tests used:
[1] = tested on: Staphylococcus aureus; assay: Antimicrobial activity, agar dilution method; format: cell-based; conditions: bouillon medium, 37° C., 1 day
[2] = tested on: Candida albicans; assay: Antimicrobial activity, agar dilution method; format: cell-based; conditions: Sabouraud's medium, 28° C., 2 days
[3] = tested on: HL-60; assay: Inhibition of proliferation of cancer cells (MTT), HL-60; format: cell-based; conditions: HL-60 (human acute promyelogenic leukemia cells), 17 hours
Description: (§1) Inhibitory activity for proliferation of cancer cells of cytotrienins I, II, III and IV.
(§2) Human leukocyte cells K562 and HL-60 were incubated on PRM 1640 medium (comprising 10% of bovine serum) in a culture chamber saturated with 5% carbon dioxide and steam. To the medium was added a series of diluted cytotrienin I, II, III and IV. After 17 hours, MTT reagent was added and growth was measured.
HL-60: Human acute promyelogenic leukemia cells

[4] = tested on: Pseudomonas aeruginosa; assay: Antimicrobial activity, agar dilution method; format: cell-based; conditions: bouillon medium, 37° C., 1 day
[5] = tested on: v-src^ts -NRK cell; assay: Activity to revert v-src^ts-NRK cell to normal morphology; format: cell-based, rat; conditions: 32° C., 18 hours; note: key: +: weakly induce normal morphology; + +: induce normal morphology; + + +: highly induce normal morphology
Description: Activity of cytotrienins I, II, III and IV to revert v-src^ts -NRK cell (rat renal cell infected with temperature-sensitive Rous sarcoma virus) to normal morphology.
Many oncogenes encode tyrosine kinase. Among them, v-src is believed to encode non-receptor type tyrosine kinase to induce the cell to transformed morphology.
V-src^ts -NRK cell is typically cultured on Eagle's MEM medium containing 10% of bovine serum at 32° C. in a culture chamber which is saturated with 5% of carbon dioxide and steam. At the permissive temperature (32° C.), a series of diluted cytotrienin I, II, III and IV were added. After 18 hours, inducibility to normal morphology was analyzed.

[6] = tested on: K-562; assay: Inhibition of proliferation of cancer cells (MTT), K-562; format: cell-based; conditions: 17 hours; for Inhibitory effect on proliferation, IC50 value (concentration to inhibit 50% of proliferation): K-562 (human chronic myelogenic leukemia cells)
Description: as §1, §2
K562: Human chronic myelogenic leukemia cells

[7] = tested on: v-src^ts -NRK cell; assay: Inhibition of v-src^ts-NRK cell cycle (progress of S phase), flow cytometry; note: key: +: weakly inhibits the progress of S; + +: inhibits the progress of S phase; + + +: strongly inhibits the progress of S phase; format: cell-based, rat; conditions: downshift 39° C. to 32° C., 18 hours
Description: Inhibitory activity for cell cycle of cytotrienins I, II, III and IV.
Generally cell divides and proliferates in accordance with a cell cycle including a series of phases such as M phase, G1 phase, S phase and G2 phase. If something happens in the control mechanism of cell cycle, homeostasis breaks and possibility of suffering from cancer or immune disease would increase.
When v--src^ts -NRK cell is cultured at non-permissive temperature (39° C.), the cell cycle stops at G0/G1 phase and if the temperature is downshifted to permissive temperature (32° C.), the cell advances to S phase and then repeats the proliferation. A series of diluted cytotrienin I, II, III and IV were added simlutaneously with the downshift and, after 18 hours, the advancement of cell cycle to S phase was analyzed by flow cytometry.

[8] = tested on: Escherichia coli BE1186; assay: Antimicrobial activity, agar dilution method; format: cell-based; conditions: bouillon medium, 37° C., 1 day
Description: Antimicrobial activity of cytotrienins I, II, III and IV
Cytotrienins I, II, III and IV were assayed by the agar dilution method in bouillon medium (examined microorganism; bacteria, 37° C., 1 day) and Sabouraud's medium (examined microorganism: fungus, 28° C., 2 days).

[9] = tested on: Pyricularia oryzae; assay: microbe, parasite or virus in culture; format: cell-based; conditions: for minimum inhibitory concentration (MIC): Sabouraud's medium, 28° C., 2 days
[10] = tested on: Chlorella vulgaris; assay: Antimicrobial activity, agar dilution method; format: cell-based
[11] = 24 h, read-out: minimum inhibitory concentration (MIC)
[12] = 48 h, read-out: minimum inhibitory concentration (MIC)

| SMILES | reversion activity to induce v-src^ts -NRK cell to normal morphology ([5]; 0.1 μg/ml) | reversion activity to induce v-src^ts -NRK cell to normal morphology ([5]; 0.3 μg/ml) | reversion activity to induce v-src^ts -NRK cell to normal morphology ([5]; 1 μg/ml) | reversion activity to induce v-src^ts -NRK cell to normal morphology ([5]; 3 μg/ml) | reversion activity to induce v-src^ts -NRK cell to normal morphology ([5]; 10 μg/ml) | Inhibition effect on v-src^ts -NRK cell cycle ([7]; 0.03 μg/ml) | Inhibition effect on v-src^ts -NRK cell cycle ([7]; 0.1 μg/ml) | Inhibition effect on v-src^ts -NRK cell cycle ([7]; 0.3 μg/ml) | Inhibition effect on v-src^ts -NRK cell cycle ([7]; 1 μg/ml) | Inhibition effect on v-src^ts -NRK cell cycle ([7]; 3 μg/ml) | minimum inhibitory concentration (MIC) [1] [µg/mL] | minimum inhibitory concentration (MIC) [2] [µg/mL] | Inhibitory effect on proliferation, IC50 value (concentration to inhibit 50% of proliferation) [3] [µg/mL] | minimum inhibitory concentration (MIC) [4] [µg/mL] | Inhibitory effect on proliferation, IC50 value (concentration to inhibit 50% of proliferation) [6] [µg/mL] | minimum inhibitory concentration (MIC) [8] [µg/mL] | minimum inhibitory concentration (MIC) [9] [µg/mL] | minimum inhibitory concentration (MIC) [10] [µg/mL] | also measured |
| --- | --- | --- | --- | --- | --- | --- | --- | --- | --- | --- | --- | --- | --- | --- | --- | --- | --- | --- | --- |
| COC1C=CC=CC=CCC(OC(=O)C2(NC(=O)C3=CCCCC3)CC2)C(C)C(O)C(C)=CCCc2cc(O)cc(c2O)NC(=O)C1 (centres unmarked) [Cytotrienin I, cytotrienin I] | + | + + | + + + | + + + | + + + | + | + + | + + + | + + + | + + + | – | – | – | – | – | – | – | – | MIC [1, 11]: > 100 µg/mL; MIC [2, 12]: > 100 µg/mL; IC50 ([3]; read-out: Inhibitory effect on proliferation, IC50 value (concentration to inhibit 50% of proliferation)): 0.005 µg/mL (≈ 0.00771 µM); MIC [4, 11]: > 100 µg/mL; IC50 ([6]; K562, K-562 (human chronic myelogenic leukemia cells), read-out: Inhibitory effect on proliferation, IC50 value (concentration to inhibit 50% of proliferation)): 0.02 µg/mL (≈ 0.0308 µM); MIC [8, 11]: > 100 µg/mL; MIC [9, 12]: 12.5 µg/mL (≈ 19.3 µM); MIC ([10]; read-out: minimum inhibitory concentration (MIC)): > 100 µg/mL |
| COC1C=CC=CC=CCC(OC(=O)C2(NC(=O)C3CCCCC3)CC2)C(C)C(O)C(C)=CCCc2cc(O)cc(c2O)NC(=O)C1 (centres unmarked) [Cytotrienin II, cytotrienin II] | + | + | + + + | + + + | + + + | + | + + | + + + | + + + | + + + | > 100 | > 100 | 0.005 | > 100 | 0.005 | > 100 | 12.5 (≈ 19.2 µM) | > 100 | – |
| COC1C=CC=CC=CCC(OC(=O)C2(NC(=O)C3=CCCCC3)CC2)C(C)C(O)C(C)=CCCC2=CC(=O)C=C(NC(=O)C1)C2=O (centres unmarked) [Cytotrienin III, cytotrienin III] | + + | + + + | + + + | + + + | + + + | + + | + + + | + + + | + + + | + + + | > 100 | > 100 | 0.001 | > 100 | 0.005 | > 100 | 12.5 (≈ 19.3 µM) | > 100 | – |
| COC1C=CC=CC=CCC(OC(=O)C2(NC(=O)C3CCCCC3)CC2)C(C)C(O)C(C)=CCCC2=CC(=O)C=C(NC(=O)C1)C2=O (centres unmarked) [Cytotrienin IV, cytotrienin IV] | + + | – | + + + | + + + | + + + | + + | + + + | + + + | + + + | + + + | > 100 | > 100 | 0.001 | > 100 | 0.001 | > 100 | 12.5 (≈ 19.3 µM) | > 100 | – |
